Earlier results as cited in PMC8791944, “GLUT3 inhibitor discovery through in silico ligand screening and in vivo validation in eukaryotic expression systems” (Scientific Reports, 2022).

System: GLUT3
Details: read-out: KM of 2-deoxy-glucose for GLUT3; GLUT3 expressed in Xenopus laevis oocytes ref 12; cited from earlier work

O=CC[C@@H](O)[C@H](O)[C@H](O)CO [2-deoxy-glucose, 2-deoxy-D-glucose]
Km: ~1.4 mM
